According to patent publication USRE47740E1, “Aminopyridinecarboxamides as CXCR2 modulators” (Syntrix Biosystems Inc., priority 2010, dated 2019):
Read-outs that look alike come from different tables or passages of the source.

Target: CXCR2 (Homo sapiens (Human), UniProt P25025)
Experiment: Inhibition of CXCR2-mediated (GROα-induced) intracellular calcium release in human neutrophils (whole cell assay, Pharmacology Example 1)
Type: cell-based
Conditions: GROα 25 nM
Experimental: Briefly, human neutrophils were suspended in HBSS^− (without Ca^2+ and Mg^2+) containing 10 mM HEPES and FLIPR Calcium 3 dye (3.1×10^7 cells in total volume 1.7 mL). Cells were aliquoted (200 μL of the cell suspension per tube, 8 tubes total) and 2 μL of compound 9 (with appropriate dilutions) were added to each of 6 tubes. The tested concentrations of compound 9 were 156 nM, 312 nM, 625 nM, 1250 nM, 2500 nM and 5000 nM. As controls, 2 μL of DMSO (1% final concentration) were added to 2 other tubes. Cells were incubated for 30 min at 37° C. After dye loading, tubes were centrifuged at 6,000 rpm for 1 min, supernatant was removed and the cell pellet was re-suspended in 200 μL of HBSS^+ (with Ca^2+ and Mg^2+) containing 10 mM HEPES. The test compound or DMSO (control) was added again at the same concentrations that were used during cell loading. The cell suspension was aliquoted into a 96-well Reading Plate (Corning) in a volume of 90 μL (10^5 cells/well). The Compound Plate contained agonist (GROα in HBSS^−) or HBSS^− (control). After 15 sec of reading the basal level of fluorescence by FlexStation II, 10 μL of GROα or HBSS^− were automatically transferred from the Compound Plate into the Reading Plate (final concentration of GROα was 25 nM). Changes in fluorescence were monitored (λex=485 nm, λem=525 nm) every 5 s for 240 to 500 s at room temperature.
The maximum change in fluorescence, expressed in arbitrary units over baseline (Max-Min), was used to determine the GROα response. The effect of each compound on the GROα response was normalized and expressed as a percent of the DMSO control, which was designated as “100% response.” Curve fitting and calculation of the compound inhibitory concentration that reduces the level of the GROα response by 50% (IC50), or the compound agonist concentration that increases the level of the calcium release by 50% of the maximum agonist-induced change (EC50) were determined by nonlinear regression analysis of the dose-response curves generated using Prism 4 (GraphPad Software, Inc., San Diego, Calif.).

[1] = FLIPR Calcium 3 dye, read-out: Inhibition of CXCR2 IC50
[2] = value in synthesis example, read-out: IC50 in whole cell assay (Pharmacology Example 1)

Chain of CXCR2 (P25025 whole entry): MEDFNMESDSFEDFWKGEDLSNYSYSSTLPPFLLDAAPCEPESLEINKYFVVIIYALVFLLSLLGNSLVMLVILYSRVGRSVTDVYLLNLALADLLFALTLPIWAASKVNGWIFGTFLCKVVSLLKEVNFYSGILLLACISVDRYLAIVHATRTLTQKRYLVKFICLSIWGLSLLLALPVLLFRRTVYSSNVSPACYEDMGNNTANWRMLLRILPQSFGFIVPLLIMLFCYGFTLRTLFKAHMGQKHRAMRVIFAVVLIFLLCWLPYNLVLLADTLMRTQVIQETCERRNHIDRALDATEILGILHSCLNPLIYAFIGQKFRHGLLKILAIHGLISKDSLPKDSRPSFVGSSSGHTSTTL

Q: What does the source list for `CN(Cc1ccccc1B(O)O)c1ccc(C(=O)Nc2ccc(F)cc2)cn1` [Compound 8]?
A: IC50 [1]: 1000 ± 200 nM; IC50 [2]: 3700 ± 600 nM

Q: For `CN(Cc1ccccc1O)c1ccc(C(=O)Nc2ccc(F)cc2)cn1` [Compound 9], which IC50 [1] is on record?
A: 586 ± 910 nM

Q: And the IC50 (read-out: IC50, inhibition of CXCR2-mediated intracellular calcium release)?
A: 586 ± 91 nM

Q: And the IC50 [2]?
A: 590 ± 90 nM

Q: How did the IC50 [1] turn out when `O=C(Nc1ccc(F)cc1)c1ccc(NCc2ccccc2B(O)O)nc1` [Compound 10] was run?
A: 1700 ± 200 nM

Q: What about the IC50 [2] of the same compound?
A: 1700 ± 200 nM

Q: What does the source list for `CN(Cc1ccc(B(O)O)cc1)c1ccc(C(=O)Nc2ccc(F)cc2)cn1` [Compound 18]?
A: IC50 [1]: 247 ± 350 nM; IC50 [2]: 247 ± 35 nM

Q: `CN(Cc1ccc(B(O)O)cc1)c1ncc(C(=O)Nc2ccc(F)cc2)cn1` [Compound 19] was tested. Which IC50 [1] did it give?
A: 244 ± 150 nM

Q: And the IC50 [2]?
A: 244 ± 15 nM
